What was measured:
Human Ca2+ receptor = biological target: T1, Human Ca2+ receptor (Homo sapiens, UniProt P41180); assay: Luciferase reporter assay in CHO cells (ET8-5-5) transfected with human Ca2+ receptor; assay type: cell-based; conditions: CHO ET8-5-5 cells, 5 h incubation with test compound
T1 construct: expressed in transfected cells
T1 sequence (P41180 20-1078): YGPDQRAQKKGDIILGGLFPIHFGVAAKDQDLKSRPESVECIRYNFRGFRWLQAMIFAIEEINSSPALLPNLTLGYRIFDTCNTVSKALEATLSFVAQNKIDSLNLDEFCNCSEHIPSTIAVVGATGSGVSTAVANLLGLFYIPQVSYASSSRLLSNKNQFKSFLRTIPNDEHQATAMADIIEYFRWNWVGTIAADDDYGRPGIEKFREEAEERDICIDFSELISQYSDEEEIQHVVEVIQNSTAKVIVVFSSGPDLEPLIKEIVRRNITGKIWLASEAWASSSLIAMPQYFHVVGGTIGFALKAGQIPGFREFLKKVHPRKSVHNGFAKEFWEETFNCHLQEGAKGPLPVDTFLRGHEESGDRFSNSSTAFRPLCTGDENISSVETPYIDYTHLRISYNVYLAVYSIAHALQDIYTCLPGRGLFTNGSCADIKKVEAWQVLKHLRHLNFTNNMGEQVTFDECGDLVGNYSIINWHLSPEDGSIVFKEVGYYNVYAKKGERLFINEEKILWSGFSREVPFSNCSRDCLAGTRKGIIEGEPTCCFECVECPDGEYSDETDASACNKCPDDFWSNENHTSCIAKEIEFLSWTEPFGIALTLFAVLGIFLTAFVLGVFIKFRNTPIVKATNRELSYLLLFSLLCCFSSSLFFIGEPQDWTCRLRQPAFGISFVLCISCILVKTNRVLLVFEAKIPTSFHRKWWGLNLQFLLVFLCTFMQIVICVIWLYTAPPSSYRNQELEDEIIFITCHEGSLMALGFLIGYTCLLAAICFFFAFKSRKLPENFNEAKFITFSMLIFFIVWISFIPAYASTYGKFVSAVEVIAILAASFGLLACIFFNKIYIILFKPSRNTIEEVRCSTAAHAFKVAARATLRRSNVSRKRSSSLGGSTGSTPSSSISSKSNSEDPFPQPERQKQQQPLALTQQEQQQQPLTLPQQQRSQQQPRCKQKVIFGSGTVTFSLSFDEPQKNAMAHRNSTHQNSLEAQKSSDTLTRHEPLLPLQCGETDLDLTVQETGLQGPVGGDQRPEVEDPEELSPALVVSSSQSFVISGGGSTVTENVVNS
Protocol: The activities of the compounds of the present invention on calcium receptors were measured in accordance with the method described hereinbelow.
Human Ca^2+ receptor cDNA was subcloned into the mammalian expression vector PECE as described in Ellis, L et al. (1986) Cell vol. 45, 721-732. The luciferase reporter was subcloned into the mammalian expression vector pGL3basic (Promega). Resistance to neomycin (pSV2-neo) and resistance to puromycin (pSG5-puro) were used as selection markers. All these plasmids were simultaneously transfected into CHO cells by calcium phosphate precipitation. Transfected cells were grown in F12 medium containing 7.5% foetal bovine serum, 100 U/ml penicillin and 100 μg/ml streptomycin (as 1% Pen-Strep, BioWithaker), neomycin (750 μg/ml) and puromycin (5 μg/ml). Neomycin and puromycin resistant colonies were subcloned and assayed for activation against a range of calcium concentration. Clone 8-5-5 was used to assess the effects of compounds on [Ca^2+]i. This stably transfected cell line was termed ET8-5-5.
For measurements of [Ca^2+]i, the cells were recovered from tissue culture flasks by brief treatment with Trypsin-EDTA (Invitrogen; containing 0.53 mM EDTA.4Na in HBSS) and then seeded in culture-treated 96-well plates (Greiner) at 50 k cells per well in the growth media (same as above, except neomycin 400 μg/ml). Cells were grown in 37° C. TC incubator for 24 h. The culture medium was then removed and replaced with F12 medium, 1% Pen-Strep for an overnight foetal bovine serum starvation in 37° C. TC incubator. Then the starvation medium was removed and replaced with a test buffer (20 mM HEPES pH 7.4, 125 mM NaCl, 5 mM KCl, 1 mM MgCl2, 5.5 mM Glucose, 2 g/l lysosyme and 0.3 mM CaCl2) supplemented with a range of test compound concentrations crossed against a super-added range of CaCl2 concentrations. The cells were incubated with the test compounds for 5 h in 37° C. TC incubator. Then the test buffer was discarded, and cells were added with the substrate for Luciferase from SteadyLite Kit (Perkin-Elmer). The luminescence was recorded.

[1] = biological target: T2, human parathyroid cell Ca2+ receptor (hPCaR) (Homo sapiens, UniProt P41180); assay: [Ca2+]i fluorescence assay in HEK 293 4.0-7 cells expressing hPCaR; assay type: cell-based; conditions: buffer with 1 mM CaCl2
T2 construct: expressed in transfected cells
T2 sequence (P41180 20-1078): T1 sequence (P41180 20-1078)
Summary of the method: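 HEK 293 clone 4.0-7 stably expressing human parathyroid Ca2+ receptor, seeded overnight, then loaded 90 min at room temperature with calcium dye in parathyroid cell buffer (pH 7.45) with 0.5% BSA and 1 mM CaCl2. Fluorescence after compound addition read at ex 485/em 530 nm.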

## COC(=O)c1cccc(NC(=O)N(CCC(c2ccccc2)c2ccccc2)CC(=O)OC(C)(C)C)c1 [Example 63, 3-[3-tert-butoxycarbonylmethyl-3-(3,3-diphenyl-propyl)-ureido]-benzoic acid methyl ester]
Human Ca2+ receptor
  EC50: 100 to 1000 nM

## O=C(O)CN(CCC(c1ccccc1)c1ccccc1)C(=O)Nc1cccc(C(=O)O)c1 [Example 66, 3-[3-carboxymethyl-3-(3,3-diphenyl-propyl)-ureido]-benzoic acid]
Human Ca2+ receptor
  EC50: 1000 to 10000 nM

## O=C(Nc1nc2ccccc2s1)N(CCNS(=O)(=O)c1ccc(C(F)(F)F)cc1)CCC(c1ccccc1)c1ccccc1 [Example 173, N-{2-[3-Benzothiazol-2-yl-1-(3,3-diphenylpropyl)-ureido]-ethyl}-4-trifluoromethyl-benzenesulfonamide]
Human Ca2+ receptor
  EC50: 100 to 1000 nM

## CCOC(=O)CCCN(CCC(c1ccccc1)c1ccccc1)C(=O)Nc1cccc(C(=O)OC)c1 [Example 64, 3-[3-(3,3-diphenyl-propyl)-3-(3-ethoxycarbonyl-propyl)-ureido]-benzoic acid methyl ester]
Human Ca2+ receptor
  EC50: < 100 nM

## O=C(O)CCCN(CCC(c1ccccc1)c1ccccc1)C(=O)Nc1cccc(C(=O)O)c1 [Example 65, 3-[3-(3-carboxy-propyl)-3-(3,3-diphenyl-propyl)-ureido]-benzoic acid]
Human Ca2+ receptor
  EC50: 1000 to 10000 nM

## COC(=O)c1ccccc1S(=O)(=O)NCCN(CCC(c1ccccc1)c1ccccc1)C(=O)Nc1nc2ccccc2s1 [Example 171, 2-{2-[3-Benzothiazol-2-yl-1-(3,3-diphenyl-propyl)-ureido]-ethylsulfamoyl}-benzoic acid methyl ester]
Human Ca2+ receptor
  EC50: 100 to 1000 nM

## COc1ccc(S(=O)(=O)NCCN(CCC(c2ccccc2)c2ccccc2)C(=O)Nc2nc3ccccc3s2)cc1 [Example 172, N-{2-[3-Benzothiazol-2-yl-1-(3,3-diphenylpropyl)-ureido]-ethyl}-4-methoxybenzenesulfonamide]
Human Ca2+ receptor
  EC50: 100 to 1000 nM

## CN1CCN(C(=O)CCCN(CCC(c2ccccc2)c2ccccc2)C(=O)Nc2nc3ccccc3s2)CC1 [Example 108, 3-(benzo[d]thiazol-2-yl)-1-(3,3-diphenylpropyl)-1-(4-(4-methylpiperazin-1-yl)-4-oxobutyl)urea]
[1]
  EC50: 100 to 1000 nM

## COC(CNCCN(CCC(c1ccccc1)c1ccccc1)C(=O)Nc1nc2ccccc2s1)OC [Example 153, 3-Benzothiazol-2-yl-1-[2-(2,2-dimethoxy-ethylamino)-ethyl]-1-(3,3-diphenyl-propyl)urea]
[1]
  EC50: 100 to 1000 nM

## CN(CCN(CCC(c1ccccc1)c1ccccc1)C(=O)Nc1nc2ccccc2s1)C1CCCCC1 [Example 163, 3-Benzothiazol-2-yl-1-[2-(cyclohexyl-methyl-amino)-ethyl]-1-(3,3-diphenyl-propyl)-urea]
[1]
  EC50: 100 to 1000 nM

Reference: patent US20080125424A1, “Derivatives of urea and related diamines, methods for their manufacture, and uses therefor” (priority 2006, published 2008)
